Measured values: patent US7179627B2, “Cyclooxygenase variants and methods of use” (Brigham Young University, priority 2001, dated 2007)
Where two headings read alike, the source gives them in different places.

Columns and labels:
[1] = active breakdown product of dipyrone; cited from earlier work
COX-3 [2] = target: T1, COX-3 (Canis lupus familiaris, UniProt Q8HZR1, E597Q); assay: COX activity (PGE2 formation by RIA) in insect cells expressing COX-3, drug inhibition; assay type: cell-based, canine
T1 construct: V5-His (vector name only); expressed in transfected cells; host or cells: Sf9 insect cells infected with recombinant baculovirus (pBlueBac 4.5/V5-His)
T1 sequence (Q8HZR1 1-633 isoform Q8HZR1-2 E627Q): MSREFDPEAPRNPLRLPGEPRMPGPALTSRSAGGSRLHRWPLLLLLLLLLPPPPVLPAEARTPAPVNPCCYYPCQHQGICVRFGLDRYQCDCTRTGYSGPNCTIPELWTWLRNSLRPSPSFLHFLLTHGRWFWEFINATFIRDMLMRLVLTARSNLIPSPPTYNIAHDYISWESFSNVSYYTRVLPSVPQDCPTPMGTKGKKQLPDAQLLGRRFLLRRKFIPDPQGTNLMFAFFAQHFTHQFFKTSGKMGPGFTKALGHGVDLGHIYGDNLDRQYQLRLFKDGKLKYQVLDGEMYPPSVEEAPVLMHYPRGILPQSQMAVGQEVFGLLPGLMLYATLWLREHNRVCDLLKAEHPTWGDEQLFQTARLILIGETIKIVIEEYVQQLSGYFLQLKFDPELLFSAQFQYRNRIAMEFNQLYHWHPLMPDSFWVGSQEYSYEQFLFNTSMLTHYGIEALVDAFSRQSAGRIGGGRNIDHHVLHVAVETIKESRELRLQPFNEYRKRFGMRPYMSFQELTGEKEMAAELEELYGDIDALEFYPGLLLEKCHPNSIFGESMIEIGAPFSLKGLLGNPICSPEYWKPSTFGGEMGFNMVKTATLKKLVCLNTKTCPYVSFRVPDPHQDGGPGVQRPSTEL
Method: (§1) Both COX-3 and PCOX-1a were cloned into the baculovirus expression vector pBlueBac 4.5/V5-His (Invitrogen). Sf9 cells (˜1×10^6) were infected with viral stocks at a multiplicity of infection (MOI) of 3 for expression of COX-3, PCOX-1a, mouse COX-1 and mouse COX-2.
(§2) Sf9 cells were infected with a high titer viral stock at a MOI of3 and cultured for 48 hr. Infected cells expressing COX-3 were aliquoted into tubes (˜1.5×10^6 cells) and centrifuged (1000×g, 5 min). The supernatant was discarded and the cell pellet resuspended in 100 μl serum-free media containing the drug to be tested and preincubated at room temperature for 30 minutes. […] Samples were then centrifuged and 100 μl of the supernatant was assayed for COX activity by RIA for PGE2. Assays were performed multiple times in triplicate. Inhibition curves were constructed and IC50 values were determined using Prism® 3.0 (GraphPad, San Diego).

mouse COX-1 = target: T2, mouse COX-1 (Mus musculus, UniProt P22437); assay: COX activity (PGE2 formation by RIA) in insect cells expressing COX-1, drug inhibition; assay type: cell-based
T2 construct: expressed in transfected cells; host or cells: Sf9 insect cells infected with recombinant baculovirus
T2 sequence (P22437 27-602): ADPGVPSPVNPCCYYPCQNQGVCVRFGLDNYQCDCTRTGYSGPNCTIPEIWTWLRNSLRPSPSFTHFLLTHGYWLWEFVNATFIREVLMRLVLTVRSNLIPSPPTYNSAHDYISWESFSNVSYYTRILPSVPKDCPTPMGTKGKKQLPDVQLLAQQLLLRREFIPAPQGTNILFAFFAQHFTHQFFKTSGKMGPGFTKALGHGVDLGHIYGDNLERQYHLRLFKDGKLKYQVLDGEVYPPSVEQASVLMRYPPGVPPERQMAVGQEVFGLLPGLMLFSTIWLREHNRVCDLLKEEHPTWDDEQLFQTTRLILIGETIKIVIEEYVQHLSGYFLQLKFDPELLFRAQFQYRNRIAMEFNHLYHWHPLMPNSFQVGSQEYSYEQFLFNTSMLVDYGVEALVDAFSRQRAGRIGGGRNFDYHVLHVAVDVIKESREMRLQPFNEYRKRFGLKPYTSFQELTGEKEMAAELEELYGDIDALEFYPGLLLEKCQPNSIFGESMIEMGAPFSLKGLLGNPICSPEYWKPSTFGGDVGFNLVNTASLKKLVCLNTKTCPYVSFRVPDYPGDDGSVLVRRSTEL
Method: as §1
Sf9 cells were infected with a high titer viral stock at a MOI of3 and cultured for 48 hr. Infected cells expressing COX-3 were aliquoted into tubes (˜1.5×10^6 cells) and centrifuged (1000×g, 5 min). The supernatant was discarded and the cell pellet resuspended in 100 μl serum-free media containing the drug to be tested and preincubated at room temperature for 30 minutes. Arachidonic acid (100 μl, final concentration 5 or 30 μM) was then added, mixed and incubated (37° C., 10 min). Samples were then centrifuged and 100 μl of the supernatant was assayed for COX activity by RIA for PGE2. Assays were performed multiple times in triplicate. Inhibition curves were constructed and IC50 values were determined using Prism® 3.0 (GraphPad, San Diego).

mouse COX-2 = target: T3, mouse COX-2 (Mus musculus, UniProt Q05769); assay: COX activity (PGE2 formation by RIA) in insect cells expressing COX-2, drug inhibition; assay type: cell-based
T3 construct: expressed in transfected cells; host or cells: Sf9 insect cells infected with recombinant baculovirus
T3 sequence (Q05769 18-604): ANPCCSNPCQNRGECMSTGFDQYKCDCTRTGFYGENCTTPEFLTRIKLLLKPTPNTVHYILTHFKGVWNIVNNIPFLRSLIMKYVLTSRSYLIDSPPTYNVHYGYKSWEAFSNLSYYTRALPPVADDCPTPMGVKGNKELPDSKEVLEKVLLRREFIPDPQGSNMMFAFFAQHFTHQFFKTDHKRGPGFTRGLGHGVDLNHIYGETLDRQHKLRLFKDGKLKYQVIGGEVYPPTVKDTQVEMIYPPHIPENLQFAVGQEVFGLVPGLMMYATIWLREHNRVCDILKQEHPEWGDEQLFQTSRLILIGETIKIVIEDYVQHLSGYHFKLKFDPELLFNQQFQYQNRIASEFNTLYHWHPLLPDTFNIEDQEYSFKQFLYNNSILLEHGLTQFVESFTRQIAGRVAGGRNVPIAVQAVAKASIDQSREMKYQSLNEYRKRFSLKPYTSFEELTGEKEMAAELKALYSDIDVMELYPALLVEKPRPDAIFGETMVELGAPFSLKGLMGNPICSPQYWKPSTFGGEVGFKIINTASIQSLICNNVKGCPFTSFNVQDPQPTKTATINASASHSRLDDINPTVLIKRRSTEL
Method: as §1, §2

COX-3 [3] = assay: COX activity of intact tunicamycin-treated insect cells by RIA; assay type: cell-based, canine; details: 10 μg/ml, harvested after 48 hr
Method: Tunicamycin was added to a final concentration of 10 μg/ml to insect cells 1 hr after infection with baculovirus constructs. The cells were cultured and harvested after 48 hr. COX activity of intact cells was determined by radioimmunoassay (RIA) (Salmon, 1978). COX activity in intact Tu-treated cells was compared with activity in untreated cells infected with the appropriate virus (MOI=3).

[4] = substrate conditions of 30 μM arachidonic acid, read-out: IC50 value for COX-3
[5] = 30 μM arachidonic acid, insect cells, PGE2 by RIA, read-out: IC50, μM COX-1
[6] = 30 μM arachidonic acid, insect cells, PGE2 by RIA, read-out: IC50, μM COX-2
[7] = 30 μM arachidonic acid, insect cells, PGE2 by RIA, read-out: IC50, μM COX-3

## CNc1c(C)n(C)n(-c2ccccc2)c1=O [4-methylaminoantipyrine]
[1]
  concentration reached in plasma: 104 µM
  concentration reached in the central nervous system: 86 µM

## Cc1c(N(C)C)c(=O)n(-c2ccccc2)n1C [Aminopyrine, 4-dimethylaminoantipyrine]
COX-3 [2]; [4]
  IC50: 688 µM
Mouse COX-1; [5]
  IC50: > 1000 µM
Mouse COX-2; [6]
  IC50: > 1000 µM

## Cc1cc(=O)n(-c2ccccc2)n1C [Antipyrine]
COX-3 [2]; IC50, μM COX-3, 30 mM arachidonic acid, insect cells, PGE2 by RIA
  IC50: 863 µM
COX-3 [2]; IC50 value for COX-3, substrate conditions of 30 μM arachidonic acid
  IC50: 862 µM
Mouse COX-1
  IC50: > 1000 µM
Mouse COX-2
  IC50: > 1000 µM

## CC(=O)Oc1ccccc1C(=O)O [Aspirin]
COX-3 [2]; [7]
  IC50: 3.1 µM

## Cn1c(=O)c2c(ncn2C)n(C)c1=O [Caffeine]
COX-3 [2]; [7]
  IC50: > 1000 µM
Mouse COX-1; [5]
  IC50: > 1000 µM
Mouse COX-2; [6]
  IC50: > 1000 µM

## O=C(O)Cc1ccccc1Nc1c(Cl)cccc1Cl [Diclofenac]
Mouse COX-1
  IC50: 0.035 µM

## Cc1c(N(C)CS(=O)(=O)[O-])c(=O)n(-c2ccccc2)n1C.[Na+] [Dipyrone]
COX-3 [2]; [4]
  IC50: 52 µM
Mouse COX-1; 30 μM arachidonic acid (FIG. 13, panel D)
  concentration inhibiting COX-1, fold higher than COX-3 IC50: 6.6 fold
Mouse COX-1; [5]
  IC50: 350 µM
Mouse COX-2; [6]
  IC50: > 1000 µM
Mouse COX-2; below 1 mM
  inhibition of COX-2: No detectable inhibition

## CCOc1ccc(NC(C)=O)cc1 [Phenacetin]
COX-3 [2]; [4]
  IC50: 102 µM
Mouse COX-1; [5]
  IC50: > 1000 µM
Mouse COX-2; [6]
  IC50: > 1000 µM

## O=C1CCC(N2C(=O)c3ccccc3C2=O)C(=O)N1 (stereo not drawn) [Thalidomide]
COX-3 [2]; [7]
  IC50: > 1000 µM
Mouse COX-1; [5]
  IC50: > 1000 µM
Mouse COX-2; [6]
  IC50: > 1000 µM

## O=C([O-])c1ccccc1O.[Na+] [sodium salicylate]
COX-3 [2]
  sensitivity of COX-3 to the drug compared with COX-1 or COX-2: less sensitive

## tunicamycin
COX-3 [3]
  COX activity in cells treated with tunicamycin: significantly decreased or abolished
